The values that follow come from patent US20250304549A1, “HYDROXYAMIDE DERIVATIVE AND USE THEREOF” (SICHUAN HUIYU PHARMACEUTICAL CO., LTD., priority 2022, published 2025).

One assay deals with NCI-H1417 cells. In words: In vitro cell inhibition assay - H1417 cell proliferation (CellTiter-Glo). Format: cell-based. The settings on record: Homo sapiens, NCI-H1417, H1417 small cell lung cancer cell proliferation. Summed up: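 Cells exposed to 8 compound concentrations (5-fold dilutions) in BEGM with 10% FBS for 7 days at 37° C., 5% CO2. Viable cells measured by CellTiter-Glo luminescence; inhibition versus no-inhibitor and no-cell controls, IC50 fitted.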

In another assay the test system is NCI-H69 cells. In words: In vitro cell inhibition assay - NCI-H69 cell proliferation (CellTiter-Glo). The assay is classed as cell-based. The settings on record: Homo sapiens, NCI-H69, H69 small cell lung cancer cell proliferation. Summed up:
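7-day exposure at 37° C., 5% CO2 to compounds serially diluted 5-fold (8 concentrations) in RPMI-640 containing 20% FBS, after overnight attachment at 1×10^3 cells/well. Read-out: CellTiter-Glo luminescence (RLU); IC50 from curve fit of inhibition rate.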

The subject of the next assay is DU145 cells. Kind of assay: In vitro cell inhibition assay - DU145 cell proliferation (CellTiter-Glo). The settings on record: Homo sapiens, DU-145, Du145 prostate cancer cell proliferation. Format: cell-based. The protocol: 5. In Vitro Cell Inhibition Assay—DU145 Cell Proliferation
The inhibitory effect of the compounds on cell proliferation was assessed by detecting the number of viable cells using the CellTiter-Glo® reagent. DU145 cells in the logarithmic growth phase were collected and inoculated into transparent bottom 96-well plates at a density 1×10^3 cells per well with 100 μL medium, and incubated at 37° C., 5% CO2 overnight. The compounds were sequentially diluted in a 5-fold concentration gradient with DMSO to obtain 8 different concentrations. These were then diluted with RPMI-640 (containing 10% FBS) cell culture medium to obtain the compound working solution (2×), which was added to the cell supernatant at 100 μL per well. The incubation continued for 6 days at 37° C., 5% CO2. The plate was then removed and equilibrated at room temperature (25° C.) along with the CellTiter-Glo® mixing reagent for 10-30 minutes. After centrifugation, 120 μL of the culture medium was carefully aspirated from each well, and 60 μL of CellTiter-Glo® reagent was added. The cells were thoroughly mixed with the CellTiter-Glo® mixing reagent using a microplate shaker for 2 min. and then incubated at room temperature for 10 min. The 96-well plate was subsequently placed on a multifunctional microplate reader to record the Luminescence values (RLU).
(§1) The inhibition rate was calculated using the following formula: […]
(§2) Note: ‘Negative’ refers to the group without inhibitors; ‘Blank’ refers to the group without cells.
(§3) The IC50 value was determined by fitting the inhibition rate by GraphPad Prism software.

The next assay concerns the target LSD1 (Homo sapiens (Human), UniProt O60341). Kind of assay: In vitro enzyme inhibition assay - LSD1 (HTRF). Format: biochemical.
Another assay concerns the target pan-HDAC. In words: In vitro enzyme inhibition assay - HDAC (HDAC-Glo I/II), pan-HDAC. The assay is classed as biochemical. Summed up:
(§4)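 Eight compound concentrations (5-fold gradient; 1 mM DMSO stock) were assayed by HDAC-Glo I/II luminescence. IC50 was obtained by four-parameter fitting.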

In the next assay the target is HDAC8 (Homo sapiens (Human), UniProt Q9BY41). In words: In vitro enzyme inhibition assay - HDAC (HDAC-Glo I/II), HDAC8. The settings on record: read-out: HDAC IC50 (nM) HDAC 8. The assay is classed as biochemical. Summed up:
as §4

The subject of a further assay is NCI-H526 cells. In words: In vitro cell inhibition assay - NCI-H526 cell proliferation (CellTiter-Glo). Format: cell-based. Particulars: Homo sapiens, NCI-H526, 120 h, H526 small cell lung cancer cell proliferation, 5 days. The protocol: 6. In Vitro Cell Inhibition Assay—NCI-H526 Cell Proliferation
The inhibitory effect of the compounds on cell proliferation was assessed by detecting the number of viable cells using CellTiter-Glo® reagent. NCI-H526 cells in the logarithmic growth phase were collected and inoculated into transparent bottom 96-well plates at a density 1×10^3 cells per well with 100 μL of medium, and incubated at 37° C., 5% CO2 overnight. The compounds were sequentially diluted in a 5-fold concentration gradient with DMSO to obtain 8 different concentrations. These were then diluted with RPMI-640 (containing 10% FBS) cell culture medium to obtain the compound working solution (2×), which was added to the cell supernatant at 100 μL per well. The incubation continued for 5 days at 37° C., 5% CO2. The plate was then removed and equilibrated at room temperature (25° C.) along with the CellTiter-Glo® mixing reagent for 10-30 minutes; 80 μL of the culture medium was carefully aspirated from each well, and 80 μL of CellTiter-Glo® reagent was added. The cells were thoroughly mixed with the CellTiter-Glo® mixing reagent using a microplate shaker for 2 min. and then incubated at room temperature for 10 min. The 96-well plate was subsequently placed on a multifunctional microplate reader to record the Luminescence values (RLU).
as §1, §2, §3

Where a name gives a salt, the structure may show the parent alone. Where only a bound is given, the exact number is not on record here.

Chain of HDAC8 (Q9BY41 whole entry): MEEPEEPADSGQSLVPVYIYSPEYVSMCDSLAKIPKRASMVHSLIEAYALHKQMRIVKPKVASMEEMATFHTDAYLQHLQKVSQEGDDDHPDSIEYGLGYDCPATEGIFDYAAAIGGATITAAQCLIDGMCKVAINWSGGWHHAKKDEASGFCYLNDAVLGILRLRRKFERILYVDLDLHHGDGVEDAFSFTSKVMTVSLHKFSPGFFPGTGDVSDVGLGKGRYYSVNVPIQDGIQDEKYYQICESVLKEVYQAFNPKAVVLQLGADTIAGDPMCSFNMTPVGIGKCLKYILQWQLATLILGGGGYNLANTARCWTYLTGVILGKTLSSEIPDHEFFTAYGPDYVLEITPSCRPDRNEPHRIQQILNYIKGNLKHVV

Take `Cn1cc2cc(-c3c(OCCCCCCC(=O)NO)cc(N4CCC(N)CC4)nc3-c3ccc(C#N)c(F)c3)ccc2n1` [Example 14, 7-((6-(4-Aminopiperidin-1-yl)-2-(4-cyano-3-fluorophenyl)-3-(2-methyl-2H-indazol-5-yl)pyridin-4-yl)oxy)-N-hydroxyheptanamide formate]: the IC50 in the assay with NCI-H1417 cells is above 1000 nM; in the assay with NCI-H69 cells it was 2520 nM; in the assay on DU145 cells, 3210 nM.
`COc1ccc(-c2cnc(N3CCC(NCc4ccc(C(=O)NO)cc4)CC3)c(C#N)c2-c2ccc(C#N)c(F)c2)cc1O` [Example 41, 4-(((1-(3-Cyano-4-(4-cyano-3-fluorophenyl)-5-(3-hydroxy-4-methoxyphenyl)pyridin-2-yl)piperidin-4-yl)amino)methyl)-N-hydroxybenzamide hydrochloride]: the concentration for half-maximal inhibition (IC50) turned out to be 0.13 nM against LSD1, 1.29 nM with NCI-H1417 cells, 1680 nM in the assay on NCI-H69 cells and 5060 nM with DU145 cells.
Take `COc1cc(-c2cnc(N3CCC(NCc4ccc(/C=C/C(=O)NO)cc4)CC3)c(F)c2-c2ccc(C#N)c(F)c2)ccc1O` [Example 77, (E)-3-(4-(((1-(4-(4-Cyano-3-fluorophenyl)-3-fluoro-5-(4-hydroxy-3-methoxyphenyl)pyridin-2-yl)piperidin-4-yl)amino)methyl)phenyl)-N-hydroxyacrylamide formate]: the values for the IC50 in the assay with NCI-H1417 cells, in the assay with NCI-H69 cells and in the assay on DU145 cells were 661 nM, 121 nM and 320 nM, respectively.
Consider `COc1ccc(-c2cnc(N3CCC(Nc4ccc(/C=C/C(=O)NO)cc4)CC3)c(C#N)c2-c2ccc(C#N)c(F)c2)cc1O` [Example 82, (E)-3-(4-((1-(3-Cyano-4-(4-cyano-3-fluorophenyl)-5-(3-hydroxy-4-methoxyphenyl)pyridin-2-yl)piperidin-4-yl)amino)phenyl)-N-hydroxyacrylamide formate], for which the IC50 came to 11.5 nM in the assay on NCI-H1417 cells, 268 nM in the assay with NCI-H69 cells and 352 nM in the assay with DU145 cells.
As for `COc1ccc(-c2cnc(N3CCC(CCc4ccc(/C=C/C(=O)NO)cc4)CC3)c(C#N)c2-c2ccc(C#N)c(F)c2)cc1O` [Example 89, (E)-3-(4-(2-(1-(3-cyano-4-(4-cyano-3-fluorophenyl)-5-(3-hydroxy-4-methoxyphenyl)pyridin-2-yl)piperidin-4-yl)ethyl)phenyl)-N-hydroxyacrylamide], the IC50 is above 1000 nM in the assay with NCI-H1417 cells, 120 nM in the assay on NCI-H69 cells and 390 nM in the assay on DU145 cells.
For `COc1cc(-c2cnc(N3CCC(NCC4CCN(c5ccc(C(=O)NO)cc5)CC4)CC3)c(C#N)c2-c2ccc(C#N)c(F)c2)ccc1O` [Example 91, 4-(4-(1-(3-Cyano-4-(4-cyano-3-fluorophenyl)-5-(4-hydroxy-3-methoxyphenyl)pyridin-2-yl)piperidin-4-yl)amino)methyl) piperidin-1-yl)-N-hydroxybenzamide formate], in that order: 623 nM, 906 nM and 2630 nM.
For `COc1cc(-c2cnc(N3CCC(NCCCc4ccc(C(=O)NO)cc4)CC3)c(C#N)c2-c2ccc(C#N)c(F)c2)ccc1O` [Example 93, 4-(3-(3-Cyano-4-(4-cyano-3-fluorophenyl)-5-(4-hydroxy-3-methoxyphenyl)pyridin-2-yl)piperidin-4-yl)amino)propyl)-N-hydroxybenzamide formate], the IC50 in the assay with NCI-H1417 cells stood at 343 nM; in the assay with NCI-H69 cells it was 1280 nM; with DU145 cells, 2840 nM.
As for `N#Cc1ccc(-c2c(-c3ccc(F)c(O)c3)cnc(N3CCC(NCc4ccc(/C=C/C(=O)NO)cc4)CC3)c2C#N)cc1F` [Example 97, (E)-3-(4-((1-(3-Cyano-4-(4-cyano-3-fluorophenyl)-5-(4-fluoro-3-hydroxyphenyl)pyridin-2-yl)piperidin-4-yl)amino)methyl) phenyl)-N-hydroxyacrylamide formate], the IC50 at LSD1 was determined as 1.06 nM; with NCI-H1417 cells, 8.93 nM; with NCI-H69 cells, 8.76 nM; in the assay with DU145 cells, 21 nM.
For `COc1ccc(-c2cnc(N3CCC(NCc4ccc(/C=C/C(=O)NO)cc4)CC3)c(C#N)c2-c2ccc(C#N)c(F)c2)c(O)c1O` [Example 140, (E)-3-(4-(((1-(3-Cyano-4-(4-cyano-3-fluorophenyl)-5-(2,3-dihydroxy-4-methoxyphenyl)pyridin-2-yl)piperidin-4-yl)amino)methyl)phenyl)-N-hydroxyacrylamide formate], in that order: 44.2 nM, 220 nM, 405 nM and 5190 nM.
For `COc1ccc(-c2cnc(N3CCC(NCc4ccc(/C(C)=C/C(=O)NO)cc4)CC3)c(C#N)c2-c2ccc(C#N)c(F)c2)cc1O` [Example 170, (E)-3-(4-(((1-(3-Cyano-4-(4-cyano-3-fluorophenyl)-5-(3-hydroxy-4-methoxyphenyl)pyridin-2-yl)piperidin-4-yl)amino)methyl)phenyl)-N-hydroxybut-2-enamide formate], the IC50 came to 0.43 nM against LSD1; 2 nM against pan-HDAC; 62.7 nM on HDAC8; 1.28 nM in the assay with NCI-H1417 cells; 27.6 nM in the assay with NCI-H69 cells; 27.5 nM in the assay with NCI-H526 cells.
Take `COc1ccc(-c2cnc(N3CCC(NCc4ccc(/C=C(\F)C(=O)NO)cc4)CC3)c(C#N)c2-c2ccc(C#N)c(F)c2)cc1O` [Example 171, (Z)-3-(4-(((1-(3-Cyano-4-(4-cyano-3-fluorophenyl)-5-(3-hydroxy-4-methoxyphenyl)pyridin-2-yl)piperidin-4-yl)amino)methyl)phenyl)-2-fluoro-N-hydroxyacrylamide formate]: the IC50 on LSD1 came out at 0.55 nM; on pan-HDAC, 1.68 nM; on HDAC8 it was 53.1 nM; in the assay with NCI-H1417 cells, 0.54 nM; with NCI-H69 cells, 14.5 nM; in the assay on NCI-H526 cells it was 12.3 nM.
As to `COc1ccc(-c2c(C#N)cc(N3CCC(NCc4ccc(/C=C/C(=O)NO)cc4)CC3)nc2-c2ccc(C#N)c(F)c2)cc1O` [Example 176, (E)-3-(4-(((1-(4-cyano-6-(4-cyano-3-fluorophenyl)-5-(3-hydroxy-4-methoxyphenyl)pyridin-2-yl)piperidin-4-yl)amino)methyl)phenyl)-N-hydroxyacrylamide formate], the IC50 on LSD1 is 0.69 nM; at pan-HDAC, 38.2 nM; at HDAC8, 508 nM; with NCI-H1417 cells, 1.88 nM; in the assay with NCI-H69 cells it was 245 nM; with NCI-H526 cells, 497 nM.
In the case of `CC(C)(O)Cn1nnc2cc(-c3cnc(N4CCC(NCc5ccc(/C=C/C(=O)NO)cc5)CC4)c(C#N)c3-c3ccc(C#N)c(F)c3)ccc21` [Example 197, (E)-3-(4-(((1-(3-Cyano-4-(4-cyano-3-fluorophenyl)-5-(1-(2-hydroxy-2-methylpropyl)-1H-benzo[d][1,2,3]triazol-5-yl)pyridin-2-yl)piperidin-4-yl)amino)methyl)phenyl)-N-hydroxyacrylamide formate], the IC50 against LSD1 was 0.49 nM; against pan-HDAC, 7.48 nM; at HDAC8, 30.1 nM; in the assay with NCI-H1417 cells, 3.59 nM; in the assay with NCI-H69 cells, 71.8 nM; with NCI-H526 cells, 193 nM.
